From patent US6316485A, “1,5-diphenylpyrazole derivatives” (Fujisawa Pharmaceutical Co., Ltd., priority 1997, dated 2001) come the findings set out here.

One experiment addresses T1, Human COX-I (Homo sapiens, UniProt P23219).
T1 construct: made in house; host or cells: stably transfected Chinese hamster ovary (CHO) cells; 1700×g supernatant of sonicated cells used as crude enzyme
Briefly: Human recombinant COX-I activity in vitro (PGE2 formation, radioimmunoassay). In kind it is biochemical. The note with it: recombinant human COX-I expressed in CHO cells; arachidonic acid 10 μM; PGE2 by radioimmunoassay. The procedure:
(§1) a. Preparation of the recombinant cyclooxygenase (COX)
(§2) The human cyclooxygenase COX-I and COX-II were expressed in transfected Chinese hamster ovary (CHO) cells. Monolayer cultures of semi-confluent CHO cells stably expressing COX-I and COX-II were washed twice and scraped into phosphate buffered saline (PBS). The cells were centrifuged at 200×g for 5 minutes and the cell pellet was sonicated in reaction buffer containing 100 mM Tris-HCl (pH 7.4), 2 μM hematin and 5 mM tryptophan. Broken cells were centrifuged for 5 minutes at 1700×g at 4° C. and the supernatants were used as crude enzymes.
(§3) Cyclooxygenase activities in the absence or presence of inhibitors were measured by determining the level of prostaglandin E2 (PGE2) synthesis from arachidonic acid. Enzymes (1 μg for COX-I and/or 3 μg for COX-II) in a total volume of 200 μl of reaction buffer were incubated in the absence and presence of various concentrations of inhibitors for 5 minutes at 30° C. The reaction was then started by the addition of arachidonic acid to the final concentration of 10 μM. The reaction was terminated by 50 μl of HCl (1N) after incubation at 30° C. for 5 minutes. PGE2 was extracted with ethyl acetate, concentrated under a stream of nitrogen and analyzed by a radio immunoassay kit (Amersham) according to the manufacture's instructions.
(§4) b. Assay for human recombinant COX-I and COX-II activity
(§5) COX activity was assayed as PGE2 formation using radioimmunoassay to detect the prostaglandin release. The appropriate COX enzyme was incubated in 0.1 M Tris-HCl buffer (pH 7.3) containing hematin and tryptophan with the addition of arachidonic acid (10 μM) for 5 minutes at 37° C. Compounds were pre-incubated with the enzyme for 5 minutes prior to the addition of arachidonic acid. Any reaction between the arachidonic acid and the enzyme was stopped after 5 minutes at 37° C. by addition of 20 μl of 1N HCl. PGE2 formation was measured by radioimmunoassay (Amersham).

The target in another experiment is T2, Human COX-II (Homo sapiens, UniProt P35354).
T2 construct: made in house; host or cells: stably transfected Chinese hamster ovary (CHO) cells; 1700×g supernatant of sonicated cells used as crude enzyme
T2 sequence (P35354 18-604): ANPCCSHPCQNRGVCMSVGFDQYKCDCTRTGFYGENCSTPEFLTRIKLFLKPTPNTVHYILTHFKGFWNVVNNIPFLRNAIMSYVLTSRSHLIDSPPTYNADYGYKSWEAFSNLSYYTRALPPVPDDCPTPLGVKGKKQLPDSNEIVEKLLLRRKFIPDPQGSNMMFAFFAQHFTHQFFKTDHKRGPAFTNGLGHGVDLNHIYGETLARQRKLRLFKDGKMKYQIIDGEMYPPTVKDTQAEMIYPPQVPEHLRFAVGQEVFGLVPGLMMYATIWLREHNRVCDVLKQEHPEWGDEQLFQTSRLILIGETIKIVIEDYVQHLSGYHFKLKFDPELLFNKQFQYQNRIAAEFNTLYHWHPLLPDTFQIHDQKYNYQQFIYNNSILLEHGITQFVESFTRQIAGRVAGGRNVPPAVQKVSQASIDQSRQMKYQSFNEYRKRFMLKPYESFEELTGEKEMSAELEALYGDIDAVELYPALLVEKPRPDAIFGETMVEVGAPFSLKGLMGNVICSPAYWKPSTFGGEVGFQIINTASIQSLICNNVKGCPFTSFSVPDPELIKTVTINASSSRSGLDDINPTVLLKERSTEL
Briefly: Human recombinant COX-II activity in vitro (PGE2 formation, radioimmunoassay). The note with it: recombinant human COX-II expressed in CHO cells; arachidonic acid 10 μM; PGE2 by radioimmunoassay. It counts as biochemical. The procedure:
as §1, §2, §3, §4, §5

The subject of experiment [1] is Adjuvant Arthritis in Rats. Briefly: Effect on Adjuvant Arthritis in Rats (antiinflammatory activity). The note with it: 1.0 mg/kg, orally once a day for 23 days; paw volume on day 23 vs vehicle-treated controls. It counts as in vivo, female Sprague-Dawley rats.

As usually defined, the IC50 is the concentration that gives 50% inhibition.

T1 sequence (P23219 24-599): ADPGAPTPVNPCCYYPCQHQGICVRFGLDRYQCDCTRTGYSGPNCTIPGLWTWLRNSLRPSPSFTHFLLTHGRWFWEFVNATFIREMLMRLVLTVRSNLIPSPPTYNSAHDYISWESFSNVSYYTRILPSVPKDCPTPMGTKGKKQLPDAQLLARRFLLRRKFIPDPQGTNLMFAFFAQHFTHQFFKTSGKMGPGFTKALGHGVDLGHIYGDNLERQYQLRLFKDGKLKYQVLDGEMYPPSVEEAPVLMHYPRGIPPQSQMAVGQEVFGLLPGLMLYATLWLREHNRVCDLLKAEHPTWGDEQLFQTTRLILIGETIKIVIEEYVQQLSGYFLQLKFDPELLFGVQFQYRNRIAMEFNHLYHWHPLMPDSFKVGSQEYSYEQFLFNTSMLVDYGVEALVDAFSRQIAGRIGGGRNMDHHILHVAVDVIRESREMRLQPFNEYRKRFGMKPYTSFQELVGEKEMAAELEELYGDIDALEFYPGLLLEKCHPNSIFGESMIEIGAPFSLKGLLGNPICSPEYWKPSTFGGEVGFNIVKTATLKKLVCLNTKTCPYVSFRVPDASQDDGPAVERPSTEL

Consider `Cc1ccc(-n2nc(C(F)F)cc2-c2ccc(S(C)(=O)=O)cc2)cc1Br` [3-(16), 1-(3-Bromo-4-methylphenyl)-3-(difluoromethyl)-5-[4-(methylsulfonyl)phenyl]pyrazole], for which the IC50 on Human COX-I is above 100 µM; on Human COX-II, below 1 µM.
For the molecule `COc1ccc(-n2nc(Cl)cc2-c2ccc(S(C)(=O)=O)cc2)cc1Cl` [10-(8), 3-Chloro-1-(3-chloro-4-methoxyphenyl)-5-[4-(methylsulfonyl)phenyl]pyrazole], the half-maximal inhibitory concentration (IC50) at Human COX-I is above 100 µM; on Human COX-II, below 1 µM. In addition, in experiment [1], the “Inhibition of secondary lesion (uninjected paw)” value is at least 60%.
On to `Cc1cccc(-n2nc(C(F)(F)F)cc2-c2ccc(S(C)(=O)=O)cc2)c1` [Example 1, 1-(3-methylphenyl)-5-[4-(methylsulfonyl)phenyl]-3-(trifluoromethyl)pyrazole], for which the “Inhibition of secondary lesion (uninjected paw)” value in experiment [1] is at least 60%.
Regarding `Cc1cc(-n2nc(C#N)cc2-c2ccc(S(C)(=O)=O)cc2)ccc1F` [Example 6, 1-(4-fluoro-3-methylphenyl)-5-[4-(methylsulfonyl)phenyl]pyrazole-3-carbonitrile], the half-maximal inhibitory concentration (IC50) on Human COX-I was above 100 µM; at Human COX-II, below 1 µM.
